Assay results reported in US12084680B2, “Methods for efficient derivation of human motor neurons from diverse spinal regions” (Wisconsin Alumni Research Foundation, priority 2016, dated 2024).

Test system: H9 hESCs
Assay: OLIG2 induction in thoracic and lumbar neuroectoderm at various day 5 reseed densities
Type: cell-based, human
Details: for PAX6+/OLIG2+ cells: reseed 1.5×10^5 cells/cm^2
Text: However, OLIG2 induction was less efficient upon employing the standard deterministic HOX patterning protocol to generate thoracic and lumbar neuromesoderm followed by a CHIR boost and application of RA and SHH/PM (FIG. 6A). Only 11±2% and 67±9% of the cells in the thoracic and lumbar cultures, respectively, were PAX6^+/OLIG2^+ (FIGS. 6B-6C). We noted that our standard neuromesodermal protocol always used a reseed density of 1.5×10^5 cells/cm^2, which generates a relatively confluent but not tightly packed cell monolayer 24 h after seeding. Having previously determined that cell density and cell-cell contacts can serve as modulators of neural fate, we explored the effects of seeding density on OLIG2 induction.
hESCs were dissociated with accutase (Thermo Fisher Scientific) and reseeded at 1×10^5 cells/cm2 in E8 medium containing 10 μM ROCK inhibitor (Y27632; R&D Systems) on 6-well polystyrene tissue culture plates coated with 100 μg/mL poly-L-ornithine (PLO; Sigma) and 8 μg/well VTN-NC. The timelines and relevant growth factors/small molecules for all differentiation procedures are described in detail in the Results section and its accompanying figures. Cells were differentiated for various amounts of time in E6 medium containing the same insulin concentration as E8 medium as described above with varying combinations of soluble factors (product information and concentration ranges are found in Table 2). For neuromesodermal induction and HOX propagation, cells were sequentially cultured with FGF8b, CHIR99021 (CHIR), GDF11, and dorsomorphin (DM) as previously described. Briefly, to initiate the neuromesodermal state, cells were changed to E6 medium followed by addition of FGF8b (200 ng/ml) 24 h later. To generate cervical neuromesodermal progenitors, cells were washed with PBS, treated with accutase, and re-seeded in E6 medium containing 200 ng/ml FGF8b, 3 μM CHIR, and 10 μM Y27632 on VTN-NC-coated plates at a density of 1.5×10^5 cells/cm^2 for 48 h. To generate thoracic neuromesodermal progenitors, cells were passaged again after 72 h of CHIR treatment and re-seeded at different densities as described in the text.
Thoracic identity was reached after an additional 24 h. Then, to reach the lumbosacral level, cells were given 30 ng/ml GDF11 and 1 μM DM for an additional 48 h. For neuroectoderm induction and generation of OLIG2^+ progenitors, FGF8b was removed at the designated time points and the concentration of CHIR was increased for 6 h as described in the text, followed by a transition to media containing RA, PM, and SHH for a period of 48 h. For differentiation of the OLIG2^+ progenitors to motor neurons, cells were subcultured by en bloc passage using a cell scraper, reseeded at a 1:200 ratio in Matrigel-coated 8-well chamber slides, and differentiated for 14 days in E6 medium containing 1 μM RA, 100 nM PM, and 100 ng/mL SHH, with media exchange every 3 days (10 μM Y27632 was included during the en bloc passaging step and removed after the first media exchange). For differentiation of lumbar cultures, 1 μM DM was included in all steps. For the myoblast co-culture experiments, OLIG2^+ cultures were en bloc passaged, frozen in E6 medium containing 10% DMSO, shipped to a different location, and thawed 1:10 in 6-well plates under the same conditions as described in FIG. 5. To facilitate neuronal maturation prior to myoblast co-culture, 5 μM DAPT (Tocris) was added from days 8-14 post-thaw. Flow cytometry, RT-PCR, and qPCR (RPS18 and CTNNB1 Taqman primers from Thermo Fisher Scientific) were conducted as previously described.

For `Cc1c[nH]c(-c2cnc(NCCNc3ccc(C#N)cn3)nc2-c2ccc(Cl)cc2Cl)n1` [CHIR, CHIR99021], the “PAX6+/OLIG2+ cells” value (lumbar culture, CHIR boost then RA and SHH/PM) was 67±9%, the “OLIG2+ cells” value (lumbar neuroectoderm, reseed 4×10^5 cells/cm^2, with dorsomorphin, CHIR boost then RA and SHH/PM) was 82±3% and the “PAX6+/OLIG2+ cells” value (thoracic culture, CHIR boost then RA and SHH/PM) was 11±2%. The “OLIG2+ cells” value (thoracic neuroectoderm, day 5 reseed 1×10^5 cells/cm^2, CHIR boost then RA and SHH/PM) was 19±5%, the “OLIG2+ cells” value (thoracic neuroectoderm, day 5 reseed 2×10^5 cells/cm^2, CHIR boost then RA and SHH/PM) was 48±3% and the “OLIG2+ cells” value (thoracic neuroectoderm, day 5 reseed 4×10^5 cells/cm^2, CHIR boost then RA and SHH/PM) was 80±3%.
